We go through three molecules from paper PMC5654082 (Malaria Journal, 2017).

The target in series [1] is T1, human OCT1 (Homo sapiens, UniProt O15245).
T1 construct: host or cells: HEK293, baculovirus transduction (CMV promoter), transient
T1 sequence (O15245 1-554): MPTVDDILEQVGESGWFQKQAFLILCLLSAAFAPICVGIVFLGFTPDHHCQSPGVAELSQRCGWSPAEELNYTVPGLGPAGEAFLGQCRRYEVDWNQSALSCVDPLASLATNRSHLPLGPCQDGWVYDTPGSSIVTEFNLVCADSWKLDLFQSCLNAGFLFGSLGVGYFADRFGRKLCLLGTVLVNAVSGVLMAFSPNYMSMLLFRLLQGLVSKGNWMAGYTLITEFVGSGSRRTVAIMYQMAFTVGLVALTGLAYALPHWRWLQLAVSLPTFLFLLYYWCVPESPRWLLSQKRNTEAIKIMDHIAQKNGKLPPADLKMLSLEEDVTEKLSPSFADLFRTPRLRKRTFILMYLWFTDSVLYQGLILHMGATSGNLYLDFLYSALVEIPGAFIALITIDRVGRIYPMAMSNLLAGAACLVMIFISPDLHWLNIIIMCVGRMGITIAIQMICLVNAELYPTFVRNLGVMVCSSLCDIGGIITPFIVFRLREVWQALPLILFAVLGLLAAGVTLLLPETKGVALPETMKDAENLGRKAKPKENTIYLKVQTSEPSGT
Kind of series: Inhibition of OCT1-mediated ASP uptake in transduced HEK293 cells. The series is classed as cell-based. The settings on record: 50 µM anti-malarial, 10 µM ASP, 10 min, 37 °C; relative to solvent control fixed at 100%. As to the method:
(§1) HEK293 cells were modified to transiently express (a combination of) human OCT1, OCT2, MATE1, MATE2-K, or eYFP. Briefly, cDNA of the respective genes was cloned downstream of a CMV promoter into a baculovirus, of which passage three was used to transduce HEK293 cells. These cells were seeded in poly-D-lysine coated 24- or 96-wells plates and grown in a 37 °C incubator at 5% CO2. Growth was initiated at ~ 25% confluency using 375 or 125 μL cell and complete medium (DMEM + GlutaMAX™-I supplemented with 10% fetal bovine serum) suspension per well, respectively. After 24 h, cells were transduced with 30 µL virus (10 µL virus + 20 µL complete medium in case of 96-wells plates) or 2 × 15 µL virus for cells that required simultaneous expression of two transporters. Finally, 195 µL sodium butyrate (45 µL for 96-wells plates) was added to a final concentration of 2 mM to enhance protein expression.
AMO (10 mM), ASP (1 mM), CQ (10 mM), PQ (10 mM) and PG (10 mM) were dissolved in MilliQ water. ART (10 mM), ATO (10 mM), DHA (10 mM), LUM (10 mM), MQ (10 mM), NMQ (20 mM), PYR (10 mM), QN (10 mM) were dissolved in DMSO. All compound stocks were stored at − 20 °C. Inhibition of OCT1- or OCT2-mediated ASP uptake by anti-malarials was performed in poly-D-lysine coated 96-wells plates 2 or 3 days following HEK293 cell transduction. In short, cells were washed with 125 µL 37 °C HBSS containing 10 mM HEPES, pH 7.4. Then, a 50 µL mixture of ASP (10 µM) and anti-malarial compound (25, 50 or 100 µM) in HBSS buffer (pH 7.4) was added to each well and incubated for 10 min at 37 °C. ASP transport was stopped by washing with 125 µL ice-cold HBSS-HEPES buffer supplemented with 0.5% BSA. Following a second wash with 125 µL ice-cold HBSS-HEPES buffer, cells were lysed with 125 µL 1 M NaOH and ASP was excited at a wavelength of 485 nm and fluorescence was detected at an emission wavelength of 535 nm using the Victor X3 multimode plate reader.
For each compound, a range of seven concentrations was used to determine the concentration at which ASP uptake was inhibited half maximally (IC50). At least three independent experiments (4 for QN) were performed for each drug in triplicate as described above. Inhibition curves were plotted by nonlinear regression analyses of the data using GraphPad Prism version 5.03. […] To generate the final dose–response inhibition curve per anti-malarial, percentage of uptake was averaged for each drug concentration per experiment and the resulting mean ± SEM corresponding to three or four independent experiments were plotted.

Series [2] deals with T2, human OCT2 (Homo sapiens, UniProt O15244).
T2 construct: host or cells: HEK293, baculovirus transduction (CMV promoter), transient
T2 sequence (O15244 1-555): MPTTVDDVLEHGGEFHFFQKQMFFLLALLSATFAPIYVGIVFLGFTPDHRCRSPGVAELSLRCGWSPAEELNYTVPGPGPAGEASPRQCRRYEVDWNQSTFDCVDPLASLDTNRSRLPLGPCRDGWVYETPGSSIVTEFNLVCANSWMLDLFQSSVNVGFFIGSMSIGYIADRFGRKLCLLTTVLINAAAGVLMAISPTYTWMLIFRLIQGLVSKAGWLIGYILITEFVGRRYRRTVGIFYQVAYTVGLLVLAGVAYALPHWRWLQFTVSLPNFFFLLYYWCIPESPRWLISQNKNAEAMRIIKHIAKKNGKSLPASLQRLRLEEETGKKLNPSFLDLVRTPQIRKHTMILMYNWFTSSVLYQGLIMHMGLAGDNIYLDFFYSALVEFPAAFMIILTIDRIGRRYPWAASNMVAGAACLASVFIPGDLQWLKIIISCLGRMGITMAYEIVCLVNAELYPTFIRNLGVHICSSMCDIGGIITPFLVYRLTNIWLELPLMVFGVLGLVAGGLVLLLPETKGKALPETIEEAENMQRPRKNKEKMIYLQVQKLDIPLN
The series is described as follows: Inhibition of OCT2-mediated ASP uptake in transduced HEK293 cells. The series is classed as cell-based. The settings on record: 10 µM ASP, 10 min, 37 °C. As to the method: as §1, with “Growth was initiated at ~ 25% confluency using 375 or 125 μL cell and complete medium (DMEM + GlutaMAX™-I supplemented with 10% fetal bovine serum) suspension per well, respectively.” left out
AMO (10 mM), ASP (1 mM), CQ (10 mM), PQ (10 mM) and PG (10 mM) were dissolved in MilliQ water. ART (10 mM), ATO (10 mM), DHA (10 mM), LUM (10 mM), MQ (10 mM), NMQ (20 mM), PYR (10 mM), QN (10 mM) were dissolved in DMSO. All compound stocks were stored at − 20 °C. Inhibition of OCT1- or OCT2-mediated ASP uptake by anti-malarials was performed in poly-D-lysine coated 96-wells plates 2 or 3 days following HEK293 cell transduction. In short, cells were washed with 125 µL 37 °C HBSS containing 10 mM HEPES, pH 7.4. […] ASP transport was stopped by washing with 125 µL ice-cold HBSS-HEPES buffer supplemented with 0.5% BSA.
For each compound, a range of seven concentrations was used to determine the concentration at which ASP uptake was inhibited half maximally (IC50). At least three independent experiments (4 for QN) were performed for each drug in triplicate as described above. […] To generate the final dose–response inhibition curve per anti-malarial, percentage of uptake was averaged for each drug concentration per experiment and the resulting mean ± SEM corresponding to three or four independent experiments were plotted.

Series [3] in a line: Maximum plasma concentration from in vivo pharmacokinetic studies after therapeutic dosing. The settings on record: human, the literature Cmax (ng/mL) of Table 2 expressed in µM. From the text:
As Cmax the (geometric) mean or median maximum plasma concentrations obtained from previous in vivo pharmacokinetic studies after therapeutic dosing was used.

The conditions of series [4]: cited from earlier work.
For series [5] the following is noted: cited from earlier work. This is another data set of the same source.
Series [6] has as its system OCT2. Further details: method as in PMID 20053795. Particulars: 50 µM; HeLa cells, metformin as substrate; cited from earlier work.
Series [7] addresses T2, human OCT2. Further details: method as in PMID 21544077. Particulars: HEK293 cells stably expressing human OCT2; read-out: Ki for OCT2-mediated MET uptake; cited from earlier work.
In series [8] the test system is OCT1. Further details: method as in PMID 25914645. The settings on record: read-out: Absolute IC50 for OCT1; cited from earlier work.
Substrate in series [9]: [H]/N=C(\N/C(=N/[H])Nc1ccc(Cl)cc1)NC(C)C
Kind of series: OCT2-mediated cellular import in transduced HEK293 cells (LC-MS/MS). The series is classed as cell-based, human. Particulars: other: 1 min incubation, 37 °C, 2.0–16 µM, pH 7.4. How it is done:
HEK293 cells were modified to transiently express (a combination of) human OCT1, OCT2, MATE1, MATE2-K, or eYFP. Briefly, cDNA of the respective genes was cloned downstream of a CMV promoter into a baculovirus, of which passage three was used to transduce HEK293 cells. These cells were seeded in poly-D-lysine coated 24- or 96-wells plates and grown in a 37 °C incubator at 5% CO2. Growth was initiated at ~ 25% confluency using 375 or 125 μL cell and complete medium (DMEM + GlutaMAX™-I supplemented with 10% fetal bovine serum) suspension per well, respectively. […]
HEK293 cells were seeded in 24-wells poly-D-lysine coated plates and transduced the subsequent day with OCT1 or OCT2 as described above. […] Following a second wash with 400 µL ice-cold HBSS-HEPES buffer, cells were lysed with 200 µL 50% (v/v) MeOH and 0.1% (v/v) formic acid (HCOOH) in water and samples were sent for quantification by mass spectrometry analysis (see “LC–MS/MS quantification of anti-malarials” section). […]
The affinity (KM) and maximum transport rate (Vmax) for OCT1 and OCT2 of PG were determined by analysing concentration-dependent uptake data from three independent experiments.
Import and export of PG and cycloguanil (CG) was assessed by single and double transduced HEK293 cells. […]

Read-outs that look alike come from different tables or passages of the source. Marks after values point to notes of the source that are not given here.

As to `CCc1nc(N)nc(N)c1-c1ccc(Cl)cc1` [Pyrimethamine, pyrimethamine], the “Relative ASP uptake (OCT1-mediated)” value in series [1] was 59 ± 6%. Further, in [2] (seven concentrations), the half-inhibitory concentration (IC50) is 1.6 µM. In addition, the “Relative ASP uptake (OCT2-mediated)” value in series [2] (50 µM anti-malarial, relative to solvent control fixed at 100%) turned out to be 6 ± 2%. The Cmax was 1.1 µM in series [3] and 281^e [48] ng/mL in [4] (patients with acute falciparum malaria, (geometric) mean or median). Moreover, in series [5], the Unbound fraction is 0.06 [49]. The “Reduction of OCT2 activity” value in series [6] was 60%. The Ki in [7] was 10 µM.

As to `O=C1Nc2ccc(Cl)cc2[C@@](C#CC2CC2)(C(F)(F)F)O1` [EFV, efavirenz], the Maximum plasma concentration in series [4] was 13 µM. In addition, in series [5], the Unbound in plasma result is “about 0.22%” and the “Unbound maximum plasma concentration” value was 0.03 µM. Further, the concentration for half-maximal inhibition (IC50) in [8] was 22 µM.

B1: human OCT2 (Homo sapiens) (protein)
chain: MPTTVDDVLEHGGEFHFFQKQMFFLLALLSATFAPIYVGIVFLGFTPDHRCRSPGVAELSLRCGWSPAEELNYTVPGPGPAGEASPRQCRRYEVDWNQSTFDCVDPLASLDTNRSRLPLGPCRDGWVYETPGSSIVTEFNLVCANSWMLDLFQSSVNVGFFIGSMSIGYIADRFGRKLCLLTTVLINAAAGVLMAISPTYTWMLIFRLIQGLVSKAGWLIGYILITEFVGRRYRRTVGIFYQVAYTVGLLVLAGVAYALPHWRWLQFTVSLPNFFFLLYYWCIPESPRWLISQNKNAEAMRIIKHIAKKNGKSLPASLQRLRLEEETGKKLNPSFLDLVRTPQIRKHTMILMYNWFTSSVLYQGLIMHMGLAGDNIYLDFFYSALVEFPAAFMIILTIDRIGRRYPWAASNMVAGAACLASVFIPGDLQWLKIIISCLGRMGITMAYEIVCLVNAELYPTFIRNLGVHICSSMCDIGGIITPFLVYRLTNIWLELPLMVFGVLGLVAGGLVLLLPETKGKALPETIEEAENMQRPRKNKEKMIYLQVQKLDIPLN
notes: host or cells: HEK293, baculovirus transduction (CMV promoter), transient
As to B1, the Km in series [9] is reported as 9.0 µM.

As usually defined, the IC50 is the concentration that inhibits the measured activity by half. What is called Cmax is the maximum level reached in the sampled fluid or tissue. The term Ki denotes the dissociation constant of the complex between target and ligand, obtained from inhibition or displacement. In general, Km refers to the substrate concentration at which the rate is half of its maximum.
